According to the supplement of paper PMC10307832:

How the values were obtained:
Experiment in all cases: relative viability (nuclei count vs DMSO), 5 days (fraction); higher = more cells survive
[1] = compound: CC(C)CCN1c2nc(Nc3cc(F)c(O)c(F)c3)ncc2N(C)C(=O)C1C [BI-D1870] + CC(=O)c1c(C)c2cnc(Nc3ccc(N4CCNCC4)cn3)nc2n(C2CCCC2)c1=O [Palbociclib] (partner 0.5 µM)
How it was run: (§1)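 Nuclei were stained with Hoechst during a one-step fixation (final 0.05% Triton X-100, 1% formaldehyde, 1 ug/ml Hoechst) carried out 5 days after dosing, then counted on 4× images. The cells, lung cancer lines in 1536-well plates, had been dosed by pin tool the day after seeding with one drug alone or a fixed anchor-drug dose plus five library-drug doses (not always all listed) in √10 steps. Relative viability is the nuclei count in treated wells divided by that in vehicle wells, and each value is the median of duplicate plates.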

[2] = compound: CC(C)CCN1c2nc(Nc3cc(F)c(O)c(F)c3)ncc2N(C)C(=O)C1C [BI-D1870] + CCNC(=O)c1noc(-c2cc(C(C)C)c(O)cc2O)c1-c1ccc(CN2CCOCC2)cc1 [Luminespib] (partner 0.01 µM)
How it was run: as §1

[3] = compound: CC(C)CCN1c2nc(Nc3cc(F)c(O)c(F)c3)ncc2N(C)C(=O)C1C [BI-D1870] + NC(=O)Nc1cc(-c2cccc(F)c2)sc1C(=O)N[C@H]1CCCNC1 [AZD7762] (partner 0.2 µM)
How it was run: as §1

[4] = compound: O=c1ncccn1[C@@H]1O[C@H](CO)[C@@H](O)[C@H]1O [Zebularine] + CC(=O)c1c(C)c2cnc(Nc3ccc(N4CCNCC4)cn3)nc2n(C2CCCC2)c1=O [Palbociclib] (partner 0.5 µM)
How it was run: as §1

Cell Line	relative viability ([1]; first compound 0.04 µM)	relative viability ([1]; first compound 0.1265 µM)	relative viability ([1]; first compound 0.4 µM)	relative viability ([1]; first compound 1.265 µM)	relative viability ([1]; first compound 4 µM)	relative viability ([2]; first compound 0.04 µM)	relative viability ([2]; first compound 0.1265 µM)	relative viability ([2]; first compound 0.4 µM)	relative viability ([2]; first compound 1.265 µM)	relative viability ([2]; first compound 4 µM)	relative viability ([3]; first compound 0.04 µM)	relative viability ([3]; first compound 0.1265 µM)	relative viability ([3]; first compound 0.4 µM)	relative viability ([3]; first compound 1.265 µM)	relative viability ([3]; first compound 4 µM)	relative viability ([4]; first compound 1 µM)	relative viability ([4]; first compound 3.162 µM)	relative viability ([4]; first compound 10 µM)	relative viability ([4]; first compound 31.62 µM)	relative viability ([4]; first compound 100 µM)
LCLC-97TM1	0.262	0.217	0.171	0.217	0.17	0.892	0.775	0.769	0.918	0.846	0.194	0.317	0.174	0.368	0.335	0.2	0.199	0.0967	0.102	0.111
LCLC-103H	0.475	0.471	0.439	0.409	0.379	0.989	0.753	0.888	1.07	0.934	0.768	0.655	0.804	0.871	0.741	0.49	0.45	0.482	0.505	0.473
PC-3 [JPC-3]	0.578	0.511	0.53	0.567	0.478	0.783	0.645	0.717	0.825	0.677	0.851	0.75	0.837	0.693	0.449	0.537	0.535	0.507	0.605	0.514
BEN	0.486	0.45	0.472	0.46	0.423	0.409	0.358	0.441	0.356	0.35	0.699	0.574	0.633	0.961	0.67	0.451	0.473	0.451	0.422	0.368
NCI-H1666	0.665	0.591	0.661	0.63	0.619	1.02	0.977	1.01	1.05	0.825	0.934	0.868	0.778	0.995	0.812	0.629	0.642	0.58	0.689	0.654
LC-2-ad	0.577	0.471	0.509	0.477	0.401	1.2	0.953	0.943	0.911	0.769	0.849	0.805	0.831	0.886	0.675	0.496	0.507	0.322	0.408	0.301
ChaGo-K-1	0.907	0.876	0.887	0.978	0.949	0.643	0.406	0.601	0.631	0.551	0.956	0.81	0.89	0.911	0.834	0.919	0.737	0.345	0.198	0.217
NCI-H1975	0.785	0.521	0.552	0.623	0.456	0.27	0.101	0.308	0.257	0.208	0.791	0.611	0.721	0.732	0.653	0.818	0.596	0.291	0.317	0.259
NCI-H1993	0.642	0.583	0.717	0.691	0.573	1	0.629	0.972	1	0.834	0.878	0.682	1.03	0.988	0.471	0.726	0.704	0.615	0.633	0.695
RERF-LC-KJ	1.14	0.994	1.03	1.02	0.766	1.42	1.16	1.22	1.3	0.552	0.944	0.896	0.946	1.08	0.914	1.09	1.01	0.871	1.3	1.24
NCI-H23	0.568	0.47	0.546	0.525	0.323	0.237	0.222	0.232	0.217	0.24	0.337	0.224	0.23	0.192	0.243	0.482	0.473		0.576	0.411
EMC-BAC-2	0.555	0.505	0.511	0.544	0.483	1.2	1.08	1.02	1.38	1.21	1.21	1.11	1.05	1.38	1.02	0.545	0.507	0.431	0.6	0.539
NCI-H2405	0.58	0.525	0.523	0.565	0.49	0.711	0.577	0.68	0.883	0.54	0.875	0.707	0.717	0.806	0.624	0.524	0.533	0.478	0.509	0.435
NCI-H358	0.121	0.124	0.117	0.128	0.126	0.441	0.158	0.256	0.313	0.319	0.551	0.566	0.52	0.594	0.492	0.213	0.128	0.134	0.131	0.132
NCI-H1944	0.335	0.308	0.308	0.332	0.33	0.841	0.691	0.669	0.879	0.763	0.624	0.433	0.514	0.685	0.546	0.309	0.353	0.339	0.36	0.329
EPLC-272H	0.323	0.358	0.306	0.288	0.23	0.559	0.13	0.207	0.245	0.272	0.207	0.17	0.257	0.21	0.255	0.375		0.326	0.324	0.344
